Measurements as given in ChEMBL document CHEMBL1201862, “PubChem BioAssay data set” (2004).
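Cells were grown in 96-well plates and exposed to each compound for 48 hours at five concentrations; endpoints were interpolated linearly between bracketing concentrations, or set to the highest concentration if not reached. GI50: concentration for 50% inhibition of growth.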 Calls of active or inactive are those of the source. Rule as the data show it: active = GI50 up to about 1.1 µM and inactive = higher.

Experiments:
Test in all cases: NCI anticancer screen, dose series, 48 h
Malme-3M = system: Malme-3M
OVCAR-3 = system: OVCAR-3
OVCAR-5 = system: OVCAR-5
NCI-H460 = system: NCI-H460
SF-295 = system: SF-295
K562 = system: K562
UACC-257 = system: UACC-257
OVCAR-4 = system: OVCAR-4
SF-539 = system: SF-539
786-0 = system: 786-0
LOX IMVI = system: LOX IMVI
SNB-75 = system: SNB-75
HL-60 = system: HL-60
CCRF-CEM = system: CCRF-CEM
HCT-116 = system: HCT-116
SR = system: SR
MDA-MB-231 = system: MDA-MB-231
T47D = system: T47D
MDA-N = system: MDA-N

Structure (SMILES) | GI50 (Malme-3M) | GI50 (OVCAR-3) | GI50 (OVCAR-5) | GI50 (NCI-H460) | GI50 (SF-295) | GI50 (K562) | GI50 (UACC-257) | GI50 (OVCAR-4) | GI50 (SF-539) | GI50 (786-0) | GI50 (LOX IMVI) | GI50 (SNB-75) | GI50 (HL-60) | GI50 (CCRF-CEM) | GI50 (HCT-116) | GI50 (SR) | GI50 (MDA-MB-231) | GI50 (T47D) | GI50 (MDA-N)
Cc1ccc2nc(NC(=O)C(=O)CC(=O)c3cccc4ccccc34)sc2c1 | 27 µM (inactive) | 19.9 µM (inactive) | > 100 µM (inactive) | 52 µM (inactive) | 19.9 µM (inactive) | 31.5 µM (inactive) | 27.2 µM (inactive) | 16.2 µM (inactive) | 24.7 µM (inactive) | 20.2 µM (inactive) | 32.2 µM (inactive) | 16.9 µM (inactive) | > 100 µM (inactive) | 30.8 µM (inactive) |  |  |  |  | 
O=C1c2cccc3cc([N+](=O)[O-])cc(c23)C(=O)N1CCCN1CCN(CCCN2C(=O)c3cccc4cc([N+](=O)[O-])cc(c34)C2=O)CC1 | 0.571 µM (active) | 1.09 µM (active) | 1.65 µM (inactive) | 0.0142 µM (active) | 0.0386 µM (active) | 0.0232 µM (active) | 0.585 µM (active) | 0.0925 µM (active) | 0.313 µM (active) | 0.0594 µM (active) | 0.0234 µM (active) | 1.38 µM (inactive) | 0.34 µM (active) | 0.0803 µM (active) | < 0.01 µM (active) |  |  |  | 
CC(N)C(=O)c1ccc(O)cc1 (configuration not stated) | > 100 µM (inactive) | > 100 µM (inactive) | > 100 µM (inactive) | > 100 µM (inactive) | > 100 µM (inactive) | > 100 µM (inactive) | > 100 µM (inactive) | > 100 µM (inactive) | > 100 µM (inactive) | > 100 µM (inactive) | > 100 µM (inactive) | > 100 µM (inactive) | > 100 µM (inactive) | > 100 µM (inactive) | > 100 µM (inactive) |  |  |  | 
CCC1NCC(=O)c2c1[nH]c1ccccc21 (configuration not stated) | > 100 µM (inactive) | > 100 µM (inactive) | > 100 µM (inactive) | > 100 µM (inactive) | > 100 µM (inactive) | > 100 µM (inactive) | > 100 µM (inactive) | > 100 µM (inactive) | > 100 µM (inactive) | > 100 µM (inactive) | > 100 µM (inactive) | > 100 µM (inactive) | > 100 µM (inactive) | > 100 µM (inactive) | > 100 µM (inactive) | > 100 µM (inactive) |  |  | 
CC(=O)OC1CCN(C(=O)c2ccccc2)CC1CC1(c2cc3ccccc3[nH]2)OCCO1 (configuration not stated) | > 100 µM (inactive) | 53.1 µM (inactive) | > 100 µM (inactive) |  | 68.5 µM (inactive) | 30.1 µM (inactive) | 50 µM (inactive) | 77.3 µM (inactive) |  | > 100 µM (inactive) | 83.2 µM (inactive) | 49.4 µM (inactive) | 24.2 µM (inactive) | 48.3 µM (inactive) | 72.6 µM (inactive) |  | > 100 µM (inactive) | 34 µM (inactive) | 39.2 µM (inactive)
COc1ccc(OC)c(NC(=O)C2=C(C)NC(C)=C(C(=O)Nc3cc(OC)ccc3OC)C2c2ccco2)c1 | > 100 µM (inactive) | > 100 µM (inactive) | > 100 µM (inactive) | > 100 µM (inactive) |  | > 100 µM (inactive) |  |  | > 100 µM (inactive) | > 100 µM (inactive) |  | > 100 µM (inactive) |  | > 100 µM (inactive) | > 100 µM (inactive) | 64.6 µM (inactive) |  |  | 
COc1ccc(OC)c(/C=C2\CCc3ccccc3C2=O)c1 | 3.72 µM (inactive) | 2.71 µM (inactive) | 4.14 µM (inactive) | 3.44 µM (inactive) | 3.35 µM (inactive) | 0.391 µM (active) |  | 6.52 µM (inactive) | 2.6 µM (inactive) | 3.03 µM (inactive) | 4.26 µM (inactive) | 1.1 µM (active) | 1.68 µM (inactive) | 2.33 µM (inactive) | 6.78 µM (inactive) |  |  |  | 
CCOP(=O)(Cc1nc(C#N)c(N)o1)OCC | > 100 µM (inactive) | > 100 µM (inactive) | > 100 µM (inactive) | > 100 µM (inactive) | > 100 µM (inactive) | > 100 µM (inactive) | > 100 µM (inactive) | > 100 µM (inactive) |  | > 100 µM (inactive) | > 100 µM (inactive) |  | > 100 µM (inactive) | > 100 µM (inactive) | > 100 µM (inactive) | > 100 µM (inactive) | > 100 µM (inactive) |  | > 100 µM (inactive)
C/C=C(\C)C(=O)N1c2ccccc2CC1c1c(C)[nH]c2ccccc12 (configuration not stated) | 32 µM (inactive) | 21.5 µM (inactive) | 37.3 µM (inactive) | 37.9 µM (inactive) | 40 µM (inactive) | 39.6 µM (inactive) | 25.2 µM (inactive) | 4.15 µM (inactive) | 50.8 µM (inactive) | > 100 µM (inactive) | > 100 µM (inactive) | 35 µM (inactive) | 15.1 µM (inactive) | 42.5 µM (inactive) | 86.9 µM (inactive) | > 100 µM (inactive) |  |  | 
C[C@]12CC[C@H](O)CC1=CC[C@@H]1C2CC[C@]2(C)C(=O)N(N)C(=O)CC12 (some centres not stated) | > 100 µM (inactive) | > 100 µM (inactive) | > 100 µM (inactive) | > 100 µM (inactive) | > 100 µM (inactive) | > 100 µM (inactive) | > 100 µM (inactive) | > 100 µM (inactive) | > 100 µM (inactive) | > 100 µM (inactive) | > 100 µM (inactive) | 5.38 µM (inactive) | > 100 µM (inactive) | > 100 µM (inactive) | > 100 µM (inactive) | > 100 µM (inactive) |  |  | 
O=C1CC2(C[C@@H]3CCCCCCCCC[C@@H](C3)C2)N1 (some centres not stated) | 11.8 µM (inactive) |  | 15.4 µM (inactive) | 16.6 µM (inactive) | 17 µM (inactive) | 20.8 µM (inactive) | 12.2 µM (inactive) | 17.9 µM (inactive) | 15.8 µM (inactive) | 16.1 µM (inactive) |  | 6.71 µM (inactive) | 15.1 µM (inactive) | 17.5 µM (inactive) | 19.5 µM (inactive) | 10.8 µM (inactive) |  |  | 
N/C(=C\c1ccc(OCc2ccccc2)c(OCc2ccccc2)c1[N+](=O)[O-])C(=O)O | > 100 µM (inactive) | > 100 µM (inactive) | > 100 µM (inactive) |  | > 100 µM (inactive) | > 100 µM (inactive) | > 100 µM (inactive) |  | > 100 µM (inactive) | > 100 µM (inactive) | > 100 µM (inactive) | > 100 µM (inactive) | > 100 µM (inactive) | > 100 µM (inactive) | > 100 µM (inactive) | > 100 µM (inactive) |  |  | 
COc1ccc(/C(Cl)=C/c2cc(OC)ccc2OC)cc1 | 93.3 µM (inactive) |  |  |  | 51.4 µM (inactive) | 47 µM (inactive) | > 100 µM (inactive) | > 100 µM (inactive) | 64.7 µM (inactive) | 81.8 µM (inactive) |  | 40.1 µM (inactive) | 28.4 µM (inactive) | 31.8 µM (inactive) | 48.8 µM (inactive) | 30.6 µM (inactive) |  |  | 
COc1cc2c3c(c1OCc1ccccc1)NCCC3NCC2 (configuration not stated) | > 100 µM (inactive) | > 100 µM (inactive) | > 100 µM (inactive) | > 100 µM (inactive) | > 100 µM (inactive) | > 100 µM (inactive) | > 100 µM (inactive) | > 100 µM (inactive) | > 100 µM (inactive) | > 100 µM (inactive) | > 100 µM (inactive) | 43.7 µM (inactive) | > 100 µM (inactive) | > 100 µM (inactive) | > 100 µM (inactive) | > 100 µM (inactive) |  |  | 
CN(C)c1nc(N(C)C)nc(N(C)CN(C)c2nc(N(C)C)nc(N(C)C)n2)n1 | > 100 µM (inactive) | > 100 µM (inactive) | > 100 µM (inactive) | > 100 µM (inactive) | > 100 µM (inactive) | > 100 µM (inactive) | > 100 µM (inactive) | > 100 µM (inactive) | > 100 µM (inactive) | 14.9 µM (inactive) | > 100 µM (inactive) | > 100 µM (inactive) | > 100 µM (inactive) | > 100 µM (inactive) | > 100 µM (inactive) | > 100 µM (inactive) |  |  | 
O[C@]12CCCC[C@H]1CCC2 | > 100 µM (inactive) | > 100 µM (inactive) | > 100 µM (inactive) | > 100 µM (inactive) | > 100 µM (inactive) | > 100 µM (inactive) | > 100 µM (inactive) | > 100 µM (inactive) | > 100 µM (inactive) | > 100 µM (inactive) | > 100 µM (inactive) | > 100 µM (inactive) | > 100 µM (inactive) | > 100 µM (inactive) | > 100 µM (inactive) |  |  |  | 
COC(=O)CC(C(C(=O)OC)C(=O)OC)N1C(=O)OC(c2ccccc2)C1c1ccccc1 (configuration not stated) | > 100 µM (inactive) | > 100 µM (inactive) | > 100 µM (inactive) | 94.2 µM (inactive) | > 100 µM (inactive) | > 100 µM (inactive) | > 100 µM (inactive) | > 100 µM (inactive) | > 100 µM (inactive) | > 100 µM (inactive) | 38.9 µM (inactive) | > 100 µM (inactive) | 37 µM (inactive) | 63.1 µM (inactive) | 95.9 µM (inactive) |  |  |  | 
Cc1c2ccncc2c(C)c2c1[nH]c1ccc(Oc3ccccc3)cc12 | 1.79 µM (inactive) | 2.46 µM (inactive) | 1.86 µM (inactive) | 1.95 µM (inactive) | 4.63 µM (inactive) | 1.92 µM (inactive) | 2.45 µM (inactive) | 2.62 µM (inactive) | 1.88 µM (inactive) | 1.78 µM (inactive) | 1.93 µM (inactive) | 2.86 µM (inactive) | 1.85 µM (inactive) | 2.17 µM (inactive) | 2.56 µM (inactive) | 2.85 µM (inactive) |  |  | 
